Like-named read-outs stand apart in the source and are kept apart here.

Type in all cases: cell-based
The subject of one test is Phytophthora capsisi. The experiment in a line: In vitro mycelial/spore growth on potato-sucrose-agar, percent disease control (PC). The note with it: read-out: % controlled, PC. In short, it runs like this: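 Compounds at 100 ppm and 50 ppm (10% acetone in water) mixed into potato-sucrose-agar, with the fungus spotted at the centre and incubated for several days. Percent control derived from the radii of spore growth.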

The subject of a further test is Fusarium moniliforme. The experiment in a line: In vitro mycelial/spore growth on potato-sucrose-agar, percent disease control (FM). The note with it: Fusarium verticillioides, read-out: % controlled, FM. In short, it runs like this: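 Compounds at 100 and 50 ppm, in water containing 10% acetone, were mixed into potato-sucrose agar, and the fungus was spotted centrally. Plates were incubated several days in a growth room. Percent control was derived from growth radii.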

For another test, the system named is Rhizopus sp. The experiment in a line: In vitro mycelial/spore growth on potato-sucrose-agar, percent disease control (RS, second column). Particulars: read-out: % controlled, RS. In short, it runs like this: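 Compound dissolved in acetone (10% of final volume) and water at 100 ppm and 50 ppm, mixed into potato-sucrose-agar. Rhizopus sp. spotted centrally and grown several days in a growth room; percent disease control derived from spore growth radii.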

The subject of a further test is Rhizoctonia solani. As to the kind of experiment: In vitro mycelial/spore growth on potato-sucrose-agar, percent disease control (RS, first column). Particulars: read-out: % controlled, RS. In short, it runs like this:
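Compounds applied at 100 ppm and 50 ppm (10% acetone in water), mixed into potato-sucrose-agar with fungus spotted centrally. Incubated several days in growth room. Percent disease control derived from radii of spore growth.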

The test system of another test is Botryosphaeri. The experiment in a line: In vitro mycelial/spore growth on potato-sucrose-agar, percent disease control (BD). Particulars: read-out: % controlled, BD. In short, it runs like this: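 Compounds at 100 ppm and 50 ppm (10% acetone in water) mixed into potato-sucrose-agar, with Botryosphaeria spotted centrally and incubated for several days. Percent disease control calculated from growth radii.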

The next test relates to GC. As to the kind of experiment: In vitro mycelial/spore growth on potato-sucrose-agar, percent disease control (GC). The note with it: read-out: % controlled, GC; for inhibition of growth at 50 ppm: GC. In a few lines:
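Compounds dissolved in acetone (10% of final volume) and water at 100 and 50 ppm, mixed into potato-sucrose-agar. Fungus spotted at plate centre and incubated several days in a growth room; percent disease control derived from the radii of growth.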

For another test, the system named is Botritis cinerea. As to the kind of experiment: In vitro mycelial/spore growth on potato-sucrose-agar, percent disease control (BC). The note with it: read-out: % controlled, BC. In a few lines:
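Compounds dissolved in acetone (10% of final volume) then water to 100 and 50 ppm, mixed into potato-sucrose-agar, and B. cinerea spotted centrally. After several days in a growth room, percent disease control calculated from spore growth radii.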

The subject of another test is Pyricalaria oryzae. As to the kind of experiment: In vitro mycelial/spore growth on potato-sucrose-agar, percent disease control (PO). Particulars: read-out: % controlled, PO. In a few lines:
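Compounds at 100 ppm and 50 ppm (10% acetone in water) mixed into potato-sucrose-agar, with Pyricalaria oryzae spotted centrally. After several days' incubation in a growth room, percent disease control derived from spore growth radii.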

Take `c1ccc(-c2ccc([Si]3(Cn4cncn4)CCCCC3)cc2)cc1` [1-(4-biphenyl)-1-(1H-1,2,4-triazole-1-yl)methyl-1-silacyclohexane]: the inhibition of growth at 50 ppm with Phytophthora capsisi stood at 92%; in the test on Fusarium moniliforme (50 ppm, Fusarium moniliforme) it was 100%; with Rhizopus sp. (50 ppm, Rhizopus sp.) it was 72%; with Rhizoctonia solani, 71%; with Botryosphaeri it was 100%; with GC, 100%. The inhibition of growth at 50 ppm in the test on Botritis cinerea and with Pyricalaria oryzae was 100% in each case. The inhibition of growth at 200 ppm in the test with Phytophthora capsisi is 100%; in the test with Fusarium moniliforme (Fusarium moniliforme), 100%; with Rhizopus sp. (Rhizopus), 94%; with Rhizoctonia solani, 80%; in the test with Botryosphaeri it was 100%; in the test on GC it was 100%. For the same compound, the inhibition of growth at 200 ppm in the test with Botritis cinerea and in the test with Pyricalaria oryzae was 100% in each case.

Regarding `Fc1ccc([Si]2(Cn3cncn3)CCCCC2)cc1` [1-(4-fluorophenyl)-1-(1H-1,2,4-triazole-1-yl)methyl-1-silacyclohexane], the inhibition of growth at 50 ppm in the test on Phytophthora capsisi is 47%; in the test with Fusarium moniliforme (50 ppm, Fusarium moniliforme), 100%; in the test on Rhizopus sp. (50 ppm, Rhizopus sp.), 75%; in the test on Rhizoctonia solani it was 55%; with Botryosphaeri it was 100%; in the test with GC, 100%. Also, the inhibition of growth at 50 ppm with Botritis cinerea came to 100%; with Pyricalaria oryzae, 96%. The inhibition of growth at 200 ppm in the test with Phytophthora capsisi amounted to 74%; in the test with Fusarium moniliforme (Fusarium moniliforme) it was 100%; with Rhizopus sp. (Rhizopus), 93%; in the test on Rhizoctonia solani, 59%; in the test with Botryosphaeri, 100%; in the test with GC, 100%. Further, the inhibition of growth at 200 ppm in the test on Botritis cinerea and in the test on Pyricalaria oryzae was 100% each time.

Regarding `FC(F)(F)c1ccc([Si]2(Cn3cncn3)CCCC2)cc1` [1-(4-trifluoromethyl)-1-(1H-1,2,4-triazole-1-yl)methyl-1-silacyclopentane], the inhibition of growth at 50 ppm was determined as 70% in the test on Phytophthora capsisi; 79% in the test on Fusarium moniliforme (50 ppm, Fusarium moniliforme); 69% with Rhizopus sp. (50 ppm, Rhizopus sp.); 95% in the test with Rhizoctonia solani; 96% in the test on Botryosphaeri; 100% in the test on GC. The results for the inhibition of growth at 50 ppm with Botritis cinerea and with Pyricalaria oryzae were 96% and 100%, respectively. The inhibition of growth at 200 ppm in the test on Phytophthora capsisi stood at 79%; in the test on Fusarium moniliforme (Fusarium moniliforme) it was 100%; in the test on Rhizopus sp. (Rhizopus) it was 72%; in the test on Rhizoctonia solani it was 99%; in the test on Botryosphaeri, 100%; with GC, 100%. The inhibition of growth at 200 ppm in the test with Botritis cinerea and in the test with Pyricalaria oryzae was 100% throughout.

For the compound `Fc1ccc([Si]2(Cn3cncn3)CCCC2)cc1` [1-(4-fluorophenyl)-1-(1H-1,2,4-triazole-1-yl)methyl-1-silacyclopentane], the inhibition of growth at 50 ppm turned out to be 80% with Phytophthora capsisi; 10% with Fusarium moniliforme; 75% in the test with Rhizopus sp. (Rhizopus); 95% in the test with Rhizoctonia solani; 100% with Botryosphaeri; 100% with GC. Also, the inhibition of growth at 50 ppm in the test with Botritis cinerea and in the test with Pyricalaria oryzae was 100% throughout. Further, the inhibition of growth at 200 ppm with Phytophthora capsisi turned out to be 100%; in the test on Fusarium moniliforme (Fusarium moniliforme), 100%; in the test on Rhizopus sp. (Rhizopus) it was 83%; in the test on Rhizoctonia solani, 100%; in the test with Botryosphaeri it was 100%; with GC, 100%. Besides, the inhibition of growth at 200 ppm with Botritis cinerea and in the test with Pyricalaria oryzae was 100% in each case.

As to `CC(n1cncn1)[Si]1(c2ccc(F)cc2F)CCCC1` (stereo not drawn) [1-(2,4-difluorophenyl)-1-[α-(1H-1,2,4-triazole-1-yl)ethyl]-1-silacyclopentane], the inhibition of growth at 50 ppm with Phytophthora capsisi stood at 45%; in the test with Fusarium moniliforme (50 ppm, Fusarium moniliforme), 100%; in the test with Rhizopus sp. (50 ppm, Rhizopus sp.), 78%; with Rhizoctonia solani it was 79%; in the test with Botryosphaeri it was 100%; with GC it was 100%. In addition, the inhibition of growth at 50 ppm in the test with Botritis cinerea and in the test on Pyricalaria oryzae was 100% throughout. Besides, the inhibition of growth at 200 ppm with Phytophthora capsisi is 94%; in the test on Fusarium moniliforme (Fusarium moniliforme), 100%; in the test with Rhizopus sp. (Rhizopus), 87%; in the test on Rhizoctonia solani it was 100%; with Botryosphaeri, 100%; with GC, 100%. In addition, the inhibition of growth at 200 ppm with Botritis cinerea and in the test with Pyricalaria oryzae was 100% throughout.

As for `Clc1ccc([Si]2(Cn3cncn3)CCCC2)cc1` [1-(4-chlorophenyl)-1-(1H-1,2,4-triazole-1-yl)methyl-1-silacyclopentane], the inhibition of growth at 50 ppm amounted to 15% in the test on Phytophthora capsisi; 100% in the test with Fusarium moniliforme (50 ppm, Fusarium moniliforme); 67% with Rhizopus sp. (50 ppm, Rhizopus sp.); 95% in the test on Rhizoctonia solani; 70% in the test with Botryosphaeri; 100% in the test with GC. Besides, the inhibition of growth at 50 ppm in the test on Botritis cinerea and with Pyricalaria oryzae was 100% throughout. For the same compound, the inhibition of growth at 200 ppm is 98% in the test with Phytophthora capsisi; 100% with Fusarium moniliforme (Fusarium moniliforme); 75% in the test with Rhizopus sp. (Rhizopus); 100% with Rhizoctonia solani; 99% with Botryosphaeri; 100% in the test with GC. For the same compound, the inhibition of growth at 200 ppm in the test with Botritis cinerea and with Pyricalaria oryzae was 100% throughout.

`COc1ccc([Si]2(Cn3cncn3)CCCCC2)cc1` [1-(4-methoxyphenyl)-1-(1H-1,2,4-triazole-1-yl)methyl-1-silacyclohexane]: the inhibition of growth at 50 ppm came out at 49% in the test with Phytophthora capsisi; 81% with Fusarium moniliforme (50 ppm, Fusarium moniliforme); 65% in the test on Rhizopus sp. (50 ppm, Rhizopus sp.); 96% with Rhizoctonia solani; 85% in the test with Botryosphaeri; 100% with GC. Besides, the inhibition of growth at 50 ppm came to 69% in the test with Botritis cinerea and 100% in the test with Pyricalaria oryzae. In addition, the inhibition of growth at 200 ppm was determined as 93% in the test with Phytophthora capsisi; 92% in the test on Fusarium moniliforme (Fusarium moniliforme); 79% with Rhizopus sp. (Rhizopus); 100% in the test on Rhizoctonia solani; 100% with Botryosphaeri; 100% in the test on GC. Besides, the inhibition of growth at 200 ppm came to 89% in the test with Botritis cinerea and 100% in the test on Pyricalaria oryzae.

For the compound `Clc1ccc([Si]2(Cn3cncn3)CCCCC2)c(Cl)c1` [1-(2,4-dichlorophenyl)-1-(1H-1,2,4-triazole-1-yl)methyl-1-silacyclohexane], the inhibition of growth at 50 ppm in the test with Phytophthora capsisi was 65%; with Fusarium moniliforme (50 ppm, Fusarium moniliforme), 100%; in the test on Rhizopus sp. (50 ppm, Rhizopus sp.), 50%; with Rhizoctonia solani, 20%; in the test with Botryosphaeri it was 98%; in the test on GC, 100%. For the same compound, the inhibition of growth at 50 ppm with Botritis cinerea turned out to be 97%; with Pyricalaria oryzae, 100%. In addition, the inhibition of growth at 200 ppm in the test with Phytophthora capsisi came to 87%; in the test on Fusarium moniliforme (Fusarium moniliforme) it was 100%; in the test with Rhizopus sp. (Rhizopus) it was 72%; with Rhizoctonia solani, 50%; in the test on Botryosphaeri, 100%; with GC, 100%. Moreover, the inhibition of growth at 200 ppm in the test with Botritis cinerea and with Pyricalaria oryzae was 100% in each case.

The record behind these values is patent publication US5455356A, “Fungicidal 1-aryl-1-[α-(triazolyl)alkyl]-1-silacycloalkanes and their preparation methods” (priority 1993, dated 1995).
